These results are taken from patent US4652552A, “Tetrapeptide methyl ketone inhibitors of viral proteases” (priority 1984, dated 1987).

Series [1] has as its system human poliomyelitis virus type 2 or human rhinovirus type 1A. It is filed as cell-based. Also on record: key to Protease-Inhibiting Activity of Selected Peptide Chloromethyl Ketones: Activity: -: no activity; +/-: low activity; +: active at 100 μg/mL; ++: active at 50 μg/mL; +++: active at 10 μg/mL; ++++: active at <5 μg/mL.
Series [2] concerns human poliomyelitis virus type 2. It is filed as cell-based. Conditions: test concentration 100 μg/mL.
For a further series, the system named is human rhinovirus type 1A. It counts as cell-based. The settings on record: test concentration 100 μg/mL.
A further series concerns rhinovirus type 1A. It counts as cell-based.
The test system of the next series is Poliovirus type 2. It is filed as cell-based.
The target of the next series is T1, subtilisin BPN' (Bacillus amyloliquefaciens, UniProt P00782).
T1 sequence (P00782 108-382): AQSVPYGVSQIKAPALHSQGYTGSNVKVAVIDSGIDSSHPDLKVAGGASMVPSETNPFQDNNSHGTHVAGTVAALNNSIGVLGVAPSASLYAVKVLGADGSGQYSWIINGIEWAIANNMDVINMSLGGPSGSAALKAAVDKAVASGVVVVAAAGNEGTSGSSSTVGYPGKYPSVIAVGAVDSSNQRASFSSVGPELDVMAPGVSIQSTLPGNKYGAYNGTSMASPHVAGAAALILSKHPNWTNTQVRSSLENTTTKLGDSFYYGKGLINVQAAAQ
Conditions: cited from earlier work.

A further series addresses chymotrypsin (Bos taurus, UniProt P00766). Conditions: inhibitor concentration 600 μg/mL; cited from earlier work.

Non-standard residues stand in square brackets, D forms with d. Residues, ends and D or L forms follow the SMILES beside them. ξ: configuration not given here. *: point of attachment. ξL = CC(C)CC(N)C(=O)O; CH2Cl = ClC*

For the molecule `CC(=O)[C@H](CC(C)C)NC(=O)[C@H](CC(C)C)NC(=O)CNC(=O)[C@H](Cc1ccccc1)NC(=O)OCc1ccccc1` [Z-Phe-Gly-Leu-LeuCH3, N-carbobenzoxy-L-phenylalanyl-L-glycyl-L-leucyl-L-leucyl methyl ketone], in series [1], the “Protease-Inhibiting Activity of Selected Peptide Chloromethyl Ketones: Activity” value was “+++ (key: -: no activity; +/-: low activity; +: active at 100 μg/mL; ++: active at 50 μg/mL; +++: active at 10 μg/mL; ++++: active at <5 μg/mL)”. For the molecule `COC(=O)CCC(=O)N[C@@H](Cc1ccccc1)C(=O)NCC(=O)N[C@@H](C)C(=O)N[C@@H](CC(C)C)C(C)=O` [MeOSuc-Phe-Gly-Ala-LeuCH3, MeOSuc--Phe--Gly--Ala--LeuCH3], the “Protease-Inhibiting Activity of Selected Peptide Chloromethyl Ketones: Activity” value in series [1] was “+++ (key: -: no activity; +/-: low activity; +: active at 100 μg/mL; ++: active at 50 μg/mL; +++: active at 10 μg/mL; ++++: active at <5 μg/mL)”. In addition, the “activity in the viral cleavage assay” value (in series [2]; in the series on human rhinovirus type 1A) was “demonstrated activity” in each case.

`CC(=O)[C@H](CC(C)C)NC(=O)[C@H](C)NC(=O)CNC(=O)[C@H](Cc1ccccc1)NC(=O)OCc1ccccc1` [Z-Phe-Gly-Ala-LeuCH3]: the “Protease-Inhibiting Activity of Selected Peptide Chloromethyl Ketones: Activity” value in series [1] is “+++ (key: -: no activity; +/-: low activity; +: active at 100 μg/mL; ++: active at 50 μg/mL; +++: active at 10 μg/mL; ++++: active at <5 μg/mL)”. Moreover, the “plaque reduction compared to control plates” value in the series with rhinovirus type 1A and with Poliovirus type 2 was above 90% throughout. In addition, the cytotoxicity entry in the series on HeLa cells is “No cytotoxicity was observed”.

Turning to `CC(=O)N[C@@H](Cc1ccccc1)C(=O)NCC(=O)N[C@@H](C)C(=O)NC(CC(C)C)C(=O)CCl` (stereo partly drawn) [Peptide Analog 3, acetyl-L-phenylalanyl-L-glycyl-L-alanyl-L-leucyl chloromethyl ketone] (Ac-FGA[ξL]-CH2Cl), at subtilisin BPN', the “inhibition of subtilisin BPN' (rate, among the peptide chloromethyl ketones tested)” value was “fastest inhibitor”. Consider `CC(=O)[C@H](CC(C)C)NC(=O)[C@H](C)NC(=O)CNC(=O)[C@H](Cc1ccccc1)NC(=O)OC(C)(C)C` [Boc-Phe-Gly-Ala-LeuCH3, reference compound], for which the “activity in the viral cleavage assay” value in series [1] is “failed to show activity”.

Consider `CC(=O)N[C@@H](CC(C)C)C(=O)N[C@@H](CC(C)C)C(=O)N[C@@H](Cc1ccccc1)C(C)=O` [Ac-Leu-Leu-PheCH3], for which the inhibition of chymotrypsin result on chymotrypsin is reported as “no inhibition was observed”.

Turning to `COC(=O)CCC(=O)N[C@@H](Cc1ccccc1)C(=O)NCC(=O)N[C@@H](CC(C)C)C(=O)N[C@@H](CC(C)C)C(C)=O` [MeOSuc-Phe-Gly-Leu-LeuCH3], the “Protease-Inhibiting Activity of Selected Peptide Chloromethyl Ketones: Activity” value in series [1] is on record as “+/-”.
